According to patent US20230013602A1, “NOVEL IMIDAZOPYRAZINE DERIVATIVES” (Hoffmann-La Roche Inc., priority 2018, published 2023):
Structures can show the parent of a compound that is named as a salt.

Assays:
[1] = system: Acinetobacter baumannii ATCC17961; assay: Antimicrobial susceptibility testing, 90% growth inhibitory concentration (IC90) determination; format: cell-based; conditions: 90% growth inhibitory concentration, Acinetobacter baumannii ATCC17961, Iso-Sensitest broth, OD 600 nm over 16 h; read-out: ATCC17961 IC90
Method: (§1) The in vitro antimicrobial activity of the compounds was determined according to the following procedure:
(§2) The assay used a 10-points Iso-Sensitest broth medium to measure quantitatively the in vitro activity of the compounds against Acinetobacter baumannii ATCC 17978 and Acinetobacter baumannii ATCC17961.
(§3) Stock compounds in DMSO were serially twofold diluted (e.g. range from 50 to 0.097 μM final concentration) in 384 wells microtiter plates and inoculated with 49 μl the bacterial suspension in Iso-Sensitest medium to have a final cell concentration of ˜5×10^(5) CFU/ml in a final volume/well of 50 ul/well. Microtiter plates were incubated at 35+2° C.
(§4) Bacterial cell growth was determined with the measurement of optical density at X=600 nm each 20 minutes over a time course of 16 h. Growth inhibition was calculated during the logarithmic growth of the bacterial cells with determination of the concentration inhibiting 50% (IC50) and 90% (IC90) of the growth.
(§5) Table 1 provides the 90% growth inhibitory concentrations (IC90) in micromoles per liter of the compounds of present invention obtained against the strain Acinetobacter baumannii ATCC17978 and Acinetobacter baumannii ATCC17961.

[2] = system: Acinetobacter baumannii ATCC 17978; assay: as above; format: cell-based; conditions: Acinetobacter baumannii ATCC17978, Iso-Sensitest broth, OD 600 nm over 16 h
Method: as §1, §2, §3, §4, §5

| IC90 [1] [nM] | IC90 [2] [nM] | Compound |
| --- | --- | --- |
| 88 | 88 | CCc1cc(Nc2nccn3c(-c4ccc(OC)c(F)c4F)cnc23)ccc1C(=O)N[C@H]1CC[C@@H](N)CC1 [Example 6, Cis-N-(4-aminocyclohexyl)-4-[[3-(2,3-difluoro-4-methoxy-phenyl)imidazo[1,2-a]pyrazin-8-yl]amino]-2-ethyl-benzamide] |
| 274 | 320 | CCc1cc(Nc2nccn3c(-c4ccc(OC)c(F)c4F)cnc23)ccc1C(=O)NC1(CN)CC1 [Example 4, N-(1-(aminomethyl)cyclopropyl)-4-((3-(2,3-difluoro-4-methoxyphenyl)imidazo[1,2-a]pyrazin-8-yl)amino)-2-ethylbenzamide hydrochloride] |
| 99 | 99 | CCc1cc(Nc2nccn3c(-c4ccc(OC)c(F)c4F)cnc23)ccc1C(=O)N[C@H]1C[C@@H](NC(=O)[C@@H](N)CCCNC(=N)N)C1 [Example 37, N-[3-[[(2S)-2-amino-5-carbamimidamidopentanoyl]amino]cyclobutyl]-4-[[3-(2,3-difluoro-4-methoxyphenyl)imidazo[1,2-a]pyrazin-8-yl]amino]-2-ethylbenzamide;2,2,2-trifluoroacetic acid] |
| 72 | 72 | COc1ccc(-c2cnc3c(Nc4ccc(C(=O)NC5CCC(NC(=O)[C@@H]6C[C@@H](O)CN6)C5)c(C)c4)nccn23)c(F)c1F (mixture of isomers) [Example 36, rac-(2R,4S)-N-[3-[[4-[[3-(2,3-difluoro-4-methoxyphenyl)imidazo[1,2-a]pyrazin-8-yl]amino]-2-methylbenzoyl]amino]cyclopentyl]-4-hydroxypyrrolidine-2-carboxamide] |
| 62 | 63 | COc1ccc(-c2cnc3c(Nc4ccc(C(=O)N[C@H]5C[C@@H](N)C5)c(C)c4)nccn23)c(F)c1F [Example 35, N-(3-aminocyclobutyl)-4-[[3-(2,3-difluoro-4-methoxyphenyl)imidazo[1,2-a]pyrazin-8-yl]amino]-2-methylbenzamide] |
| 248 | 250 | CCc1cc(Nc2nccn3c(-c4ccc(OC)c(F)c4F)cnc23)ccc1C(=O)N[C@H]1C[C@H](N)C1 [Example 14, N-(3-aminocyclobutyl)-4-[[3-(2,3-difluoro-4-methoxy-phenyl)imidazo[1,2-a]pyrazin-8-yl]amino]-2-ethyl-benzamide] |
| 84 | 84 | CCc1cc(Nc2nccn3c(-c4ccc(OC)c(F)c4F)cnc23)ccc1C(=O)N[C@H]1C[C@@H](N)C1 [Example 11, Cis N-(3-aminocyclobutyl)-4-[[3-(2,3-difluoro-4-methoxy-phenyl)imidazo[1,2-a]pyrazin-8-yl]amino]-2-ethyl-benzamide] |
| 276 | 280 | CCc1cc(Nc2nccn3c(-c4ccc(OC)c(F)c4F)cnc23)ccc1C(=O)NC1CCNCC1 [Example 13, 4-[[3-(2,3-difluoro-4-methoxy-phenyl)imidazo[1,2-a]pyrazin-8-yl]amino]-2-ethyl-N-(4-piperidyl)benzamide] |
| 288 | 290 | CCc1cc(Nc2nccn3c(-c4ccc(OC)c(F)c4F)cnc23)ccc1C(=O)NC1CCC1N (stereo not drawn) [Example 39, N-(2-aminocyclobutyl)-4-[[3-(2,3-difluoro-4-methoxyphenyl)imidazo[1,2-a]pyrazin-8-yl]amino]-2-ethylbenzamide] |
| 54 | 54 | COc1ccc(-c2cnc3c(Nc4ccc(C(=O)N[C@H]5CC[C@@H](NC(=O)[C@@H]6C[C@@H](O)CN6)CC5)c(C)c4)nccn23)c(F)c1F [Example 34, (2S,4R)-N-[4-[[4-[[3-(2,3-difluoro-4-methoxyphenyl)imidazo[1,2-a]pyrazin-8-yl]amino]-2-methylbenzoyl]amino]cyclohexyl]-4-hydroxypyrrolidine-2-carboxamide] |
| 162 | 160 | COc1ccc(-c2cnc3c(Nc4ccc(C(=O)N[C@@H]5CCNC5)c(C)c4)nccn23)c(F)c1F [Example 38, 4-[[3-(2,3-difluoro-4-methoxyphenyl)imidazo[1,2-a]pyrazin-8-yl]amino]-2-methyl-N-[(3R)-pyrrolidin-3-yl]benzamide] |
| 852 | 850 | CCc1cc(Nc2nccn3c(-c4ccc(OC)c(F)c4F)cnc23)ccc1C(=O)N[C@@H]1CCCC[C@@H]1N (racemic) [Example 8, rac-N-((1R,2S)-2-aminocyclohexyl)-4-((3-(2,3-difluoro-4-methoxyphenyl)imidazo[1,2-a]pyrazin-8-yl)amino)-2-ethylbenzamide] |
| 66 | 66 | COc1ccc(-c2cnc3c(Nc4ccc(C(=O)NC5CCN(C(=O)[C@@H]6C[C@@H](O)CN6)CC5)c(C)c4)nccn23)c(F)c1F [Example 32, 4-[[3-(2,3-difluoro-4-methoxyphenyl)imidazo[1,2-a]pyrazin-8-yl]amino]-N-[1-[(2S,4R)-4-hydroxypyrroIidine-2-carbonyl]piperidin-4-yl]-2-methylbenzamide] |
| 83 | 84 | CCc1cc(Nc2nccn3c(-c4ccc(OC)c(F)c4F)cnc23)ccc1C(=O)NC1(CNC(=N)N)CC1 [Example 18, N-[1-(carbamimidamidomethyl)cyclopropyl]-4-[[3-(2,3-difluoro-4-methoxyphenyl)imidazo[1,2-a]pyrazin-8-yl]amino]-2-ethylbenzamide] |
|  | 260 | CCc1cc(Nc2nccn3c(-c4ccc(OC)c(F)c4F)cnc23)ccc1C(=O)N[C@@H]1CCNC1 [Example 3, (R)-4-((3-(2,3-difluoro-4-methoxyphenyl)imidazo[1,2-a]pyrazin-8-yl)amino)-2-ethyl-N-(pyrrolidin-3-yl)benzamide hydrochloride] |
| 75 | 75 | COc1ccc(-c2cnc3c(Nc4ccc(C(=O)N[C@H]5CC[C@@H](NC(=C(C)C)N(C)C)CC5)c(C)c4)nccn23)c(F)c1F [Example 33, 4-[[3-(2,3-difluoro-4-methoxyphenyl)imidazo[1,2-a]pyrazin-8-yl]amino]-N-[4-[[1-(dimethylamino)-2-methylprop-1-enyl]amino]cyclohexyl]-2-methylbenzamide;formic acid] |
| 154 | 150 | CCc1cc(Nc2nccn3c(-c4ccc(OC)c(F)c4F)cnc23)ccc1C(=O)NC1(CNC(C)=N)CC1 [Example 19, 4-[[3-(2,3-difluoro-4-methoxyphenyl)imidazo[1,2-a]pyrazin-8-yl]amino]-N-[1-[(ethanimidoylamino)methyl]cyclopropyl]-2-ethylbenzamide] |
| 290 | 290 | COc1ccc(-c2cnc3c(Nc4ccc(C(=O)N(C)CCC(=O)N5CCNCC5)c(C)c4)nccn23)cc1F [Reference Example 10, 4-[[3-(3-fluoro-4-methoxy-phenyl)imidazo[1,2-a]pyrazin-8-yl]amino]-N,2-dimethyl-N-(3-oxo-3-piperazin-1-yl-propyl)benzamide] |
| 176 | 180 | CCc1cc(Nc2nccn3c(-c4ccc(OC)c(F)c4F)cnc23)ccc1C(=O)N[C@H]1CC[C@@H](NC(=O)[C@@H](N)CCCNC(=N)N)CC1 [Example 5, N-[4-[[(2S)-2-amino-5-guanidino-pentanoyl]amino]cyclo-hexyl]-4-[[3-(2,3-difluoro-4-methoxy-phenyl)imidazo[1,2-a]pyrazin-8-yl]amino]-2-ethyl-benzamide trifluoroacetate] |
|  | 5300 | COc1ccc(-c2cnc3c(Nc4ccc(C(=O)N(C)C5CCN(C)CC5)c(C)c4)nccn23)cc1 [Example 15, 4-[[3-(4-methoxyphenyl)imidazo[1,2-a]pyrazin-8-yl]amino]-N,2-dimethyl-N-(1-methylpiperidin-4-yl)benzamide] |
| 53 | 53 | COc1ccc(-c2cnc3c(Nc4ccc(C(=O)N[C@H]5CC[C@@H](N)CC5)c(C)c4)nccn23)c(F)c1F [Example 31, N-(4-aminocyclohexyl)-4-[[3-(2,3-difluoro-4-methoxyphenyl)imidazo[1,2-a]pyrazin-8-yl]amino]-2-methylbenzamide] |
| 297 | 300 | CCc1cc(Nc2nccn3c(-c4ccc(OC)c(F)c4F)cnc23)ccc1C(=O)N[C@H]1CCC[C@@H]1N [Example 9, N-((1S,2S)-2-aminocyclopentyl)-4-((3-(2,3-difluoro-4-methoxyphenyl)imidazo[1,2-a]pyrazin-8-yl)amino)-2-ethylbenzamide] |
| 230 | 230 | CCc1cc(Nc2nccn3c(-c4ccc(OC)c(F)c4F)cnc23)ccc1C(=O)NC1CNC1 [Example 12, N-(azetidin-3-yl)-4-[[3-(2,3-difluoro-4-methoxy-phenyl)imidazo[1,2-a]pyrazin-8-yl]amino]-2-ethyl-benzamide] |

| Compound | IC90 [1] [nM] | IC90 [2] [nM] |
| --- | --- | --- |
| Cc1cc(Nc2nccn3c(-c4ccc(OC(F)F)cc4)cnc23)ccc1C(=O)NC1CN2CCC1CC2 (stereo not drawn) [Example 2, 4-((3-(4-(difluoromethoxy)phenyl)imidazo[1,2-a]pyrazin-8-yl)amino)-2-methyl-N-(quinuclidin-3-yl)benzamide] |  | 3200 |
